{"source": "patent US20030232013A1", "about": "“Therapeutic and diagnostic targeting of cancers cells with tumor homing peptides” (priority 2002, published 2003)", "key": {"[1]": {"test_system": "CFPAC-1 (Human) pancreatic cancer cells", "assay": "In vitro competitive cell binding assay, CFPAC-1", "conditions": "competitive binding vs. ^125I-Tyr^5-6-Ahx-Phe^19-STh or ^125I-Tyr^5-Phe^19-STh", "protocol": "(§1) In Vitro Competitive Cell Binding Assay. The IC50 values of both metallated and non-metallated STh conjugates were determined in human cancer cells by a competitive displacement cell binding assay using ^125I-STh (^125I-Tyr^5-Phe^19-STh or ^125I-Tyr^5-6-Ahx-Phe^19-STh). […] After the incubation, the reaction medium was aspirated and cells were washed three times with media. The radioactivity bound to the cells was counted in a Packard Riastar gamma counting system. The ^125I-STh bound to cells was plotted vs. increasing concentrations of STh conjugate to determine the respective IC50 values (Table 3). For statistical considerations, three separate in vitro cell binding experiments with each conjugate were performed in duplicate."}, "[2]": {"test_system": "PC-3 (Human) prostate cancer cells", "assay": "In vitro competitive cell binding assay, PC-3", "conditions": "competitive binding vs. ^125I-Tyr^5-6-Ahx-Phe^19-STh or ^125I-Tyr^5-Phe^19-STh", "protocol": "as §1"}, "[3]": {"test_system": "CAPAN-1 (Human) pancreatic cancer cells", "assay": "In vitro competitive cell binding assay, CAPAN-1", "conditions": "competitive binding vs. ^125I-Tyr^5-6-Ahx-Phe^19-STh or ^125I-Tyr^5-Phe^19-STh", "protocol": "as §1"}, "[4]": {"test_system": "T47D (Human) breast cancer cells", "assay": "In vitro competitive cell binding assay, T47D", "protocol": "as §1"}, "[5]": {"test_system": "A375 (Human) melanoma cells", "assay": "In vitro competitive cell binding assay, A375", "conditions": "competitive binding vs. ^125I-Tyr^5-6-Ahx-Phe^19-STh or ^125I-Tyr^5-Phe^19-STh", "protocol": "as §1"}, "[6]": {"test_system": "MB-231 (Human) breast cancer cells", "assay": "In vitro competitive cell binding assay, MB-231", "protocol": "as §1"}, "[7]": {"test_system": "MCF-7 (Human) breast cancer cells", "assay": "In vitro competitive cell binding assay, MCF-7", "conditions": "competitive binding vs. ^125I-Tyr^5-6-Ahx-Phe^19-STh or ^125I-Tyr^5-Phe^19-STh", "protocol": "as §1"}, "[8]": {"test_system": "H69 (Human) lung cancer cells", "assay": "In vitro competitive cell binding assay, H69", "conditions": "competitive binding vs. ^125I-Tyr^5-6-Ahx-Phe^19-STh or ^125I-Tyr^5-Phe^19-STh", "protocol": "as §1"}, "[9]": {"test_system": "MB-468 (Human) breast cancer cells", "assay": "In vitro competitive cell binding assay, MB-468", "conditions": "competitive binding vs. ^125I-Tyr^5-6-Ahx-Phe^19-STh or ^125I-Tyr^5-Phe^19-STh", "protocol": "as §1"}, "[10]": {"test_system": "OVCAR-3 (Human) ovarian cancer cells", "assay": "In vitro competitive cell binding assay, OVCAR-3", "conditions": "competitive binding vs. ^125I-Tyr^5-6-Ahx-Phe^19-STh or ^125I-Tyr^5-Phe^19-STh", "protocol": "as §1"}}, "note": "Like-named read-outs stand apart in the source and are kept apart here. Bridge positions count the residues as written; N and C are the ends. Square brackets hold non-standard residues; d marks the D form. Peptide text beside a SMILES is read from it. Ahx = NCCCCCC(=O)O", "data": [{"compound": "CC(C)C[C@@H]1NC(=O)[C@H](CCC(=O)O)NC(=O)[C@@H]2CSSC[C@@H]3NC(=O)[C@H](C)NC(=O)[C@@H]4CCCN4C(=O)[C@H](CC(N)=O)NC(=O)[C@H](CSSC[C@H](NC(=O)[C@H](Cc4ccc(O)cc4)NC(=O)[C@H](CC(N)=O)NC(=O)[C@H](CO)NC(=O)[C@H](CO)NC(=O)[C@H](CC(N)=O)NC(=O)CCCCCN)C(=O)N2)NC(=O)[C@H](CSSC[C@@H](C(=O)N[C@@H](Cc2ccccc2)C(=O)O)NC(=O)CNC(=O)[C@H]([C@@H](C)O)NC3=O)NC1=O", "note": "[6-Ahx-Phe^19-STh] (H-[Ahx]NSSNYCCELCCNPACTGCF-OH; disulfide 7-12, 8-16, 11-19 (inferred); N-terminus assumed)", "values": [{"measurement": "IC50", "setting": "[1]", "value": "4.4 ± 1.5", "unit": "nM"}, {"measurement": "IC50", "setting": "[2]", "value": 3.1, "unit": "nM"}, {"measurement": "IC50", "setting": "[3]", "value": 4.5, "unit": "nM"}, {"measurement": "IC50", "setting": "[4]; competitive binding vs. ^125I-Tyr^5-6-Ahx-Phe^19-STh or ^125I-Tyr^5-Phe^19-STh, read-out: In vitro IC50, Breast T47D (Human)", "value": "5.6 ± 0.9", "unit": "nM"}, {"measurement": "IC50", "setting": "[5]", "value": "6.4 ± 2.9", "unit": "nM"}, {"measurement": "IC50", "setting": "[6]; competitive binding vs. ^125I-Tyr^5-6-Ahx-Phe^19-STh or ^125I-Tyr^5-Phe^19-STh, read-out: In vitro IC50, Breast MB-231 (Human)", "value": "5.2 ± 1.5", "unit": "nM"}, {"measurement": "IC50", "setting": "[7]", "value": "4.6 ± 2.8", "unit": "nM"}]}, {"compound": "CC(C)C[C@@H]1NC(=O)[C@H](CCC(=O)O)NC(=O)[C@@H]2CSSC[C@@H]3NC(=O)[C@H](C)NC(=O)[C@@H]4CCCN4C(=O)[C@H](CC(N)=O)NC(=O)[C@H](CSSC[C@H](NC(=O)[C@H](Cc4ccc(O)cc4)NC(=O)[C@H](CC(N)=O)NC(=O)[C@H](CO)NC(=O)[C@H](CO)NC(=O)[C@@H](N)CC(N)=O)C(=O)N2)NC(=O)[C@H](CSSC[C@@H](C(=O)N[C@@H](Cc2ccccc2)C(=O)O)NC(=O)CNC(=O)[C@H]([C@@H](C)O)NC3=O)NC1=O", "note": "[Phe^19-STh] (H-NSSNYCCELCCNPACTGCF-OH; disulfide 6-11, 7-15, 10-18)", "values": [{"measurement": "IC50", "setting": "[4]; competitive binding vs ^125-Tyr-6-Ahx-Phe^19-STh, read-out: IC50, T-47D (FIG. 5)", "value": "3 ± 1.7", "unit": "nM"}, {"measurement": "IC50", "setting": "[8]", "value": "4.5 ± 1.7", "unit": "nM"}, {"measurement": "IC50", "setting": "[6]; competitive binding vs ^125-Tyr-6-Ahx-Phe^19-STh, read-out: IC50, MB-231 (FIG. 5)", "value": "5.2 ± 1.3", "unit": "nM"}, {"measurement": "IC50", "setting": "[9]", "value": 2.8, "unit": "nM"}, {"measurement": "IC50", "setting": "[10]", "value": 3.2, "unit": "nM"}]}]}
